Data on six molecules can be found in patent US12364261B2, “Liquid sulfonylurea- and Li-salt containing herbicidal compositions” (priority 2016, dated 2025).

Where two headings read alike, the source gives them in different places.

Data set [1] is described as follows: chemical stability of active ingredient in liquid formulation after storage at 54° C. for two weeks (HPLC, relative to −10° C. control). It counts as physicochemical. Here is the method:
Chemical stability can be determined as a percentage of the sulfonyl urea remaining (e.g. as determined by HPLC) when the liquid composition (e.g. a 50 ml sample of the liquid composition in a 60 ml hermetically sealed Winchester bottle) has been stored at 54° C. for two weeks relative to a corresponding control sample that has been stored at −10° C. for two weeks.
Sulfonylurea was added to a solvent in an amount of 25 wt. %. The mixture was placed in a mill (Eiger Torrance Mini Mill) containing glass beads (1.0-1.25 mm). The suspension was then milled to provide a 25 wt. % sulfonylurea millbase having a particle size (D50) between 2 and 3 μm.
Lithium salt was added to solvent in an amount of 25 wt. % and milled as described above to provide a 25 wt. % lithium salt millbase having a particle size (D50) between 2 and 3 μm.
An appropriate amount of the milled concentrate of sulfonylurea (i) was blended with solvent (optionally containing surfactant) until homogenous, and then further blended with milled concentrate of lithium salt (ii) until homogenous, resulting in the oil dispersions as described in the tables below.
The liquid formulations were stored in tightly closed glass bottles in thermostatically controlled incubators at 54° C. for two weeks with control samples stored at −10° C. After storage, all formulations were analysed for active ingredient content(s) by HPLC. Stability is reported with respect to the amount of active ingredient remaining relative to a corresponding sample stored at −10° C. for two weeks.

The conditions of data set [2]: after 5 days, depending on the selected solvent; U.S. Pat. No. 5,731,264; cited from earlier work.
The conditions of data set [3]: one week of storage at 40° C.; WO 2007/027863 A2; cited from earlier work.
The mark [4] stands for this setting: in the presence of lithium acetate.

Regarding `COC(=O)c1ccc(I)cc1S(=O)(=O)NC(=O)Nc1nc(C)nc(OC)n1` [iodosulfuron-methyl, methyl 4-iodo-2-[[[[(4-methoxy-6-methyl-1,3,5-triazin-2-yl)amino]carbonyl]amino]sulfonyl]benzoate], the “chemical stability in the presence of lithium acetate” value in data set [1] (setting [4]) is given as “excellent chemical stability”. The “chemical stability in the presence of lithium salts” value in data set [1] (in the presence of lithium acetate, formate, benzoate, octanoate, salicylate, citrate, carbonate, phosphate, chloride and sulphate) is “excellent chemical stability”.

Regarding `CCOC(=O)c1cnn(C)c1S(=O)(=O)NC(=O)Nc1nc(OC)cc(OC)n1` [pyrazosulfuron-ethyl, ethyl 5-[[[[(4,6-dimethoxy-2-pyrimidinyl)amino]carbonyl]amino]sulfonyl]-1-methyl-1H-pyrazole-4-carboxylate], in data set [1] (setting [4]), the “chemical stability in the presence of lithium acetate” value is “excellent chemical stability”.

As to `COC(=O)c1c(Cl)nn(C)c1S(=O)(=O)NC(=O)Nc1nc(OC)cc(OC)n1` [halosulfuron-methyl, methyl 3-chloro-5-[[[[(4,6-dimethoxy-2-pyrimidinyl)amino]carbonyl]amino]sulfonyl]-1-methyl-1H-pyrazole-4-carboxylate], the “chemical stability in the presence of lithium acetate” value in data set [1] (setting [4]) is given as “excellent chemical stability”.

As to `COc1cc(OC)nc(NC(=O)NS(=O)(=O)N(C)S(C)(=O)=O)n1` [amidosulfuron, N-[[[[(4,6-dimethoxy-2-pyrimdinyl)amino]carbonyl]amino]sulfonyl]-N-methylmethanesulfonamide], in data set [1] (setting [4]), the “chemical stability in the presence of lithium acetate” value is given as “excellent chemical stability”.

Take `COC(=O)c1ccccc1S(=O)(=O)NC(=O)Nc1nc(C)nc(OC)n1` [metsulfuron-methyl, methyl 2-[[[[(4-methoxy-6-methyl-1,3,5-triazin-2-yl)amino]carbonyl]amino]sulfonyl]benzoate]: in data set [2], the metsulfuron methyl lost is on record as 25-30%. Also, the “chemical stability in the presence of lithium acetate” value in data set [1] is recorded as “excellent chemical stability”.

Turning to `COC(=O)c1ccccc1S(=O)(=O)NC(=O)N(C)c1nc(C)nc(OC)n1` [tribenuron-methyl, methyl 2-[[[[N-(4-methoxy-6-methyl-1,3,5-triazin-2-yl)-N-methylamino]carbonyl]amino]-sulfonyl]benzoate], in data set [3], the tribenuron-methyl lost entry is “up to 66.5%”.
